Data: US10336702B2, “Pharmaceutically active compounds” (BERGENBIO ASA, priority 2015, dated 2019)

What was measured:
[1] = biological target: T1, p-Akt3 in WM115 cells (Homo sapiens, UniProt Q9Y243); assay: Phospho-Akt cellular SureFire assay, p-Akt3 in WM115 cells; assay type: cell-based; conditions: insulin stimulated, read-out: Biological Assay 2 IC50 (nM) Akt3 WM115
T1 construct: SureFire assays to detect cellular p-Akt1, p-Akt2 and p-Akt3 levels in WM115 cells (Akt2/3) and LNCaP cells (Akt1); endogenous in cells; host or cells: WM115 (ECACC 91061232), insulin-stimulated
Outline: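 WM115 cells were serum-reduced to 0.1% FBS, stimulated with 100 nM insulin for 10 min, then exposed to compound (0.3% DMSO) for 15 min at 37 °C. Lysates were assayed for Thr308-phosphorylated Akt3 by AlphaScreen SureFire using an isoform-specific total Akt3 capture antibody. IC50 was derived from a 4-parameter fit.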

[2] = biological target: T2, Akt2 (Homo sapiens, UniProt P31751); assay: Akt activation assay (PDK1-mediated activation, LANCE Ultra crosstide TR-FRET), Akt2; assay type: biochemical; conditions: read-out: Biological Assay 1 IC50 (nM) Akt2
T2 construct: unspecified tag, removed (detagged) (cleaved yes); purchased SignalChem and Proteros (Akt2); Merck Millipore (PDK1) 14-452 (PDK1); none given for Akt2
Outline: (§1)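 Compound + Akt preinc.; start w/ PDK1 5 nM, DOPS/DOPC 5.5 μM each, PIP3 0.55 μM, ATP 100 μM, Ulight-crosstide 100 nM; HEPES pH 7.5, 10 mM MgCl2, 2 mM DTT, 1% DMSO; 30 min; EDTA stop; Eu-Ab TR-FRET; 4-PL IC50.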

[3] = biological target: T3, Akt3 (Homo sapiens, UniProt Q9Y243); assay: Akt activation assay (PDK1-mediated activation, LANCE Ultra crosstide TR-FRET), Akt3; assay type: biochemical; conditions: read-out: Biological Assay 1 IC50 (nM) Akt3
T3 construct: unspecified tag, removed (detagged) (cleaved yes); purchased SignalChem and Proteros (Akt3); Merck Millipore (PDK1) 14-452 (PDK1); none given for Akt3
Outline: as §1

[4] = biological target: T4, Akt1 (Homo sapiens, UniProt P31749); assay: Akt activation assay (PDK1-mediated activation, LANCE Ultra crosstide TR-FRET), Akt1; assay type: biochemical; conditions: read-out: Biological Assay 1 IC50 (nM) Akt1
T4 construct: unspecified tag, removed (detagged) (cleaved yes); purchased SignalChem and Proteros (Akt1); Merck Millipore (PDK1) 14-452 (PDK1); none given for Akt1
Outline: as §1

[5] = biological target: T5, p-Akt2 in WM115 cells (Homo sapiens, UniProt P31751); assay: Phospho-Akt cellular SureFire assay, p-Akt2 in WM115 cells; assay type: cell-based; conditions: insulin stimulated, read-out: Biological Assay 2 IC50 (nM) Akt2 WM115
T5 construct: SureFire assays to detect cellular p-Akt1, p-Akt2 and p-Akt3 levels in WM115 cells (Akt2/3) and LNCaP cells (Akt1); endogenous in cells; host or cells: WM115 (ECACC 91061232), insulin-stimulated
Outline: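 WM115 cells in 0.1% FBS medium stimulated 10 min with 100 nM insulin, then exposed to compound for 15 min at 37° C (0.3% DMSO final). Lysates assayed by AlphaScreen with anti-(pThr308)Akt and isoform-specific total Akt2 antibodies; IC50 from 4-parameter fit.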

[6] = biological target: T6, p-Akt1 in LNCaP cells (Homo sapiens, UniProt P31749); assay: Phospho-Akt cellular SureFire assay, p-Akt1 in LNCaP cells; assay type: cell-based; conditions: read-out: Biological Assay 2 IC50 (nM) Akt1 LNCaP
T6 construct: SureFire assays to detect cellular p-Akt1, p-Akt2 and p-Akt3 levels in WM115 cells (Akt2/3) and LNCaP cells (Akt1); endogenous in cells; host or cells: LNCaP (ECACC 89110211)
Outline: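 LNCaP cells, 5×10^4/well, seeded overnight, switched to 0.1% FBS medium without insulin stimulation, then compound for 15 min at 37 °C (0.3% DMSO). Lysate p-Akt1 (pThr308) by AlphaScreen SureFire, two 2 h incubations at room temperature; IC50 by 4-parameter fit.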

T4 sequence (P31749 whole entry): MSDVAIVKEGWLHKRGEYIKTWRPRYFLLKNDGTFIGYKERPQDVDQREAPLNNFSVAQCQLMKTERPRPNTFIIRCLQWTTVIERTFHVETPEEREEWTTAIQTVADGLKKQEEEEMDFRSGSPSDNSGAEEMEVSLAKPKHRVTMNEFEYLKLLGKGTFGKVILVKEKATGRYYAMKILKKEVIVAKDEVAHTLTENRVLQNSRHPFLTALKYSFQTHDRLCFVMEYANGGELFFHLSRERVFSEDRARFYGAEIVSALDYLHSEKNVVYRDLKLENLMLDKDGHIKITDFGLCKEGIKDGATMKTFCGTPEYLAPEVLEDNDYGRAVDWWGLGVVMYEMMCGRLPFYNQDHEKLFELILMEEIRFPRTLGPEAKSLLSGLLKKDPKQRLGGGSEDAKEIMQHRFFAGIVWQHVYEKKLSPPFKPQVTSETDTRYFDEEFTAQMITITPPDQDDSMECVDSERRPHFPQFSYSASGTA
T6 sequence (P31749 whole entry): as above
T5 sequence (P31751 whole entry): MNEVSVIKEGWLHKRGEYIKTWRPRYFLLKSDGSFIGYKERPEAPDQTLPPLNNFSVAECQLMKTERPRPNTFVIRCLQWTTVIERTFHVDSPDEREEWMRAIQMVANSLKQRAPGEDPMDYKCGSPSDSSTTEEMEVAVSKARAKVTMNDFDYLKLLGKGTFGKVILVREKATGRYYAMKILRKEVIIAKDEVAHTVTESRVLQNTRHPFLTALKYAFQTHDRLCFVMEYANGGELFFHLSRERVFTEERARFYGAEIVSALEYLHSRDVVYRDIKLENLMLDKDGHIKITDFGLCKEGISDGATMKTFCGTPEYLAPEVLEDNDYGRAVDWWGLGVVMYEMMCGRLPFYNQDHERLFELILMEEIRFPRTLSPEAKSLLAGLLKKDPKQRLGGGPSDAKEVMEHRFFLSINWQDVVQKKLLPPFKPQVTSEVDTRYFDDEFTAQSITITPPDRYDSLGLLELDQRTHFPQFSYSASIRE
T2 sequence (P31751 whole entry): as above
T1 sequence (Q9Y243 whole entry): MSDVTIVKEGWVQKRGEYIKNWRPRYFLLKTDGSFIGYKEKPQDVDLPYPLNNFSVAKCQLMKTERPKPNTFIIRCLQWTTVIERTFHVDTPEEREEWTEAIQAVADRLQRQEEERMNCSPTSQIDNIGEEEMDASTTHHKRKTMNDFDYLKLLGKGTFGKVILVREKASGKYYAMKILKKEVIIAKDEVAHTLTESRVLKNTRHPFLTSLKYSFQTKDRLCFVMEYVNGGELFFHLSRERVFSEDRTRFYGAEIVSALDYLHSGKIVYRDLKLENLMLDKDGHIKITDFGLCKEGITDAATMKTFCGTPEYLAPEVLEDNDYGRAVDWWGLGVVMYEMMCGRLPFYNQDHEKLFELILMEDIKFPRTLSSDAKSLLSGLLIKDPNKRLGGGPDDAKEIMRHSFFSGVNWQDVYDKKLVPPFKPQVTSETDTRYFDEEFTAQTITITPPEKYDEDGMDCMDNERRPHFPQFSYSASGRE
T3 sequence (Q9Y243 whole entry): as above

Row | Compound | IC50 [1] [nM] | IC50 [2] [nM] | IC50 [3] [nM] | IC50 [4] [nM] | IC50 [5] [nM] | IC50 [6] [nM]
1 | CC(C)(N)c1ccc(-c2cnc(NC(=O)C[C@H]3CC[C@H](N4CCOC4=O)CC3)cc2-c2ccsc2)cc1 [Example A52, N-(5-(4-(2-aminopropan-2-yl)phenyl)-4-(thiophen-3-yl)pyridin-2-yl)-2-(trans-4-(2-oxooxazolidin-3-yl)cyclohexyl)acetamide] | 240 | 11000 | 640 | > 30000 | 2600 | > 30000
2 | CCOC(=O)N(C)[C@H]1CC[C@H](CC(=O)Nc2cc(-c3ccccc3)c(-c3ccc([C@]4(N)C[C@](C)(O)C4)cc3)cn2)CC1 [Example A73, Ethyl (trans-4-(2-((5-(4-(trans-1-amino-3-hydroxy-3-methylcyclobutyl)phenyl)-4-phenylpyridin-2-yl)amino)-2-oxoethyl)cyclohexyl)(methyl)carbamate] | 77 | 130 | 7 | 8800 | 1200 | 2900
3 | CC(=O)N(C)[C@H]1CC[C@H](CC(=O)Nc2cc(-c3ccccc3)c(-c3ccc([C@]4(N)C[C@](C)(O)C4)c(F)c3)nn2)CC1 [Example 127, N-(6-(4-(trans-1-amino-3-hydroxy-3-methylcyclobutyl)-3-fluorophenyl)-5-phenylpyridazin-3-yl)-2-(trans-4-(N-methylacetamido)cyclohexyl)acetamide] | 42 | 2900 | 31 | > 25000 | 2900 | > 30000
4 | COC(=O)N(C)[C@H]1CC[C@H](CC(=O)Nc2cnc(-c3ccc(C(C)(C)N)cc3)c(-c3ccsc3)c2)CC1 [Example A67, Methyl (trans-4-(2-((6-(4-(2-aminopropan-2-yl)phenyl)-5-(thiophen-3-yl)pyridin-3-yl)amino)-2-oxoethyl)cyclohexyl)(methyl)carbamate] | 830 | 8900 | 200 | > 30000 | > 30000 | > 30000
5 | NC1(c2ccc(-c3cnc(NC(=O)C[C@H]4CC[C@H](N5CCCC5=O)CC4)cc3-c3ccccc3)cc2)CC1 [Example A83, N-(5-(4-(1-aminocyclopropyl)phenyl)-4-phenylpyridin-2-yl)-2-(trans-4-(2-oxopyrrolidin-1-yl)cyclohexyl)acetamide] | 220 | 500 | 33 | > 30000 | 3400 | > 20000
6 | COC(=O)N(C)[C@H]1CC[C@H](CC(=O)Nc2cnc(-c3ccc(C4(N)CCC4)cc3)c(-c3ccccc3)c2)CC1 [Example A1, Methyl (trans-4-(2-((6-(4-(1-aminocyclobutyl)phenyl)-5-phenylpyridin-3-yl)amino)-2-oxoethyl)cyclohexyl)(methyl)carbamate] | 130 | 420 | 110 | 4000 | 2800 | > 16000
7 | CCCC(=O)N[C@H]1CC[C@H](CC(=O)Nc2cnc(-c3ccc(C4(N)CC4)cc3)c(-c3ccccc3)c2)CC1 [Example A41, N-(trans-4-(2-((6-(4-(1-aminocyclopropyl)phenyl)-5-phenylpyridin-3-yl)amino)-2-oxoethyl)cyclohexyl)butyramide] | 59 | 370 | 75 | 11000 | 840 | 3600
8 | CCC(=O)N(C)[C@H]1CC[C@H](CC(=O)Nc2cc(-c3ccccc3)c(-c3ccc([C@]4(N)C[C@](C)(O)C4)cc3)cn2)CC1 [Example 82, N-(trans-4-(2-((5-(4-(trans-1-amino-3-hydroxy-3-methylcyclobutyl)phenyl)-4-phenylpyridin-2-yl)amino)-2-oxoethyl)cyclohexyl)-N-methylpropionamide] | 10 | 130 | 6 | > 19000 | 380 | 2400
9 | CC(=O)N(CC(F)(F)F)[C@H]1CC[C@H](CC(=O)Nc2cc(-c3ccccc3)c(-c3ccc([C@]4(N)C[C@](C)(O)C4)cc3)cn2)CC1 [Example 117, N-(5-(4-(trans-1-amino-3-hydroxy-3-methylcyclobutyl)phenyl)-4-phenylpyridin-2-yl)-2-(trans-4-(N-(2,2,2-trifluoroethyl)acetamido)cyclohexyl)acetamide] | 33 | 290 | 42 | > 24000 | 980 | 12000
10 | CC(=O)N(C)[C@H]1CC[C@H](CC(=O)Nc2cnc(-c3ccc(C(C)(C)N)cc3)c(-c3ccccc3F)c2)CC1 [Example 9, N-(6-(4-(2-aminopropan-2-yl)phenyl)-5-(2-fluorophenyl)pyridin-3-yl)-2-(trans-4-(N-methylacetamido)cyclohexyl)acetamide] | 110 | 2500 | 150 | > 30000 | 3500 | > 30000
11 | NC1(c2ccc(-c3ncc(NC(=O)C[C@H]4CC[C@H](N5CCOCC5)CC4)cc3-c3ccccc3)cc2)CC(F)(F)C1 [Example A2, N-(6-(4-(1-amino-3,3-difluorocyclobutyl)phenyl)-5-phenylpyridin-3-yl)-2-(trans-4-morpholinocyclohexyl)acetamide] | 560 | 2600 | 1400 | 5500 | 6000 | 7700
12 | CC(=O)N(C)[C@H]1CC[C@H](CC(=O)Nc2cnc(-c3ccc(C(C)(C)N)cc3)c(-c3ccccc3)c2)CC1 [Example 3, N-(6-(4-(2-aminopropan-2-yl)phenyl)-5-phenylpyridin-3-yl)-2-(trans-4-(N-methylacetamido)cyclohexyl)acetamide] | 170 | > 30000 | 72 | > 30000 | 10000 | > 26000
13 | CC(=O)N(C)[C@H]1CC[C@H](CC(=O)Nc2cnc(-c3ccc(C4(N)CC(C)(O)C4)c(F)c3)c(-c3ccccc3)c2)CC1 (stereo partly drawn) [Example 124, N-(6-(4-(trans-1-amino-3-hydroxy-3-methylcyclobutyl)-3-fluorophenyl)-5-phenylpyridin-3-yl)-2-(trans-4-(N-methylacetamido)cyclohexyl)acetamide] | 27 | 880 | 36 | > 21000 | 2400 | 10000
14 | CCC(=O)N(CC)[C@H]1CC[C@H](CC(=O)Nc2cc(-c3ccccc3)c(-c3ccc([C@]4(N)C[C@](C)(O)C4)cc3)nn2)CC1 [Example 113, N-(trans-4-(2-((6-(4-(trans-1-amino-3-hydroxy-3-methylcyclobutyl)phen)-5-phenylpyridazin-3-yl)amino)-2-oxoethyl)cyclohexyl)-N-ethylpropionamide] | 7 | 130 | 8 | > 14000 | 510 | 4100
15 | CN(C)C(=O)[C@H]1CC[C@H](CC(=O)Nc2cnc(-c3ccc(C(C)(C)N)cc3)c(-c3ccccc3)c2)CC1 [Example 55, trans-4-(2-((6-(4-(2-aminopropan-2-yl)phenyl)-5-phenylpyridin-3-yl)amino)-2-oxoethyl)-N,N-dimethylcyclohexanecarboxamide] | 160 | 3300 | 1600 | > 30000 | 3800 | > 30000
